Data taken from patent US12715893B2, “Oxysterol compounds and uses thereof” (MAX BIOPHARMA, INC., priority 2020, dated 2026).

Columns and labels:
Hh signaling = conditions: background statement; Compound 8 in mesenchymal cells; cited from earlier work
[1] = system: Hedgehog target gene Gli1; experiment: Expression of Hedgehog target gene Gli1 (quantitative RT-PCR) in NIH3T3 cells; assay type: cell-based; conditions: for effect on Hh signaling (relative expression of Gli1) / effect on Gli/Hh signaling in cells treated with Conditioned Medium (relative expression of Gli1): 5 μM and 10 μM; for effect on Hh signaling (relative expression of Gli1): vs DMSO control (FIG. 5); for effect on Gli/Hh signaling in cells treated with Conditioned Medium (relative expression of Gli1): CAPAN-1 conditioned medium (CM), vs CM (FIG. 5, FIG. 7)
Procedure: (§1) The compounds described herein were tested on cell cultures to assess their effects on the mRNA expression of Hedgehog target genes Gli1. Conditioned medium (CM) was collected from CAPAN-1 human pancreatic tumor cells grown to confluence in DMEM containing 10% fetal bovine serum (FBS) and contains Hh proteins that activate the Hh pathway in cells receiving the CM. After 7 days of incubation of confluent cells with the described medium, CM was collected, spun for 5 minutes at 1800 rpm to remove dead cells and debris, and then frozen at −80° C. For treating cells, CM was thawed and diluted 1:2 to 1:6 with DMEM containing 5% FBS. NIH3T3 cells and M2 cells were cultured in 12-well plates with DMEM containing 10% FBS. The cells were then treated with DMEM containing 5% FBS or CM in the presence or absence of the compounds prepared in DMSO when they reach confluence. Quantitative RT-PCR was then performed according to the following approach. After 72 to 96 hours of the treatments, the cells were lysed and subjected to RNA extraction with RNease Plus Min kit (Qiagen). A portion of RNA from each well was subjected to Reverse Transcription (RT) using iScript Reverse Transcription Supermix (BioRad). QPCR was performed to test the expression of Hh target gene Gli1 using IQ SYBR Green Supermix (BioRad).

[2] = system: Hedgehog target gene Gli1; experiment: Expression of Hedgehog target gene Gli1 (quantitative RT-PCR) in M2 cells; assay type: cell-based; conditions: 5% FBS in DMEM, 1 μM and 5 μM, vs DMSO control (FIG. 6)
Procedure: as §1

TGFβ signaling = conditions: background statement; cited from earlier work
[3] = system: Hedgehog target gene Gli1; experiment: Expression of Hedgehog target gene Gli1 (Q-RT-PCR, normalized to Oaz1) in C3H10T1/2 cells; assay type: cell-based; conditions: 5 μM and 10 μM, 72 hours (FIG. 9)
Procedure: as §1, with “A portion of RNA from each well was subjected to Reverse Transcription (RT) using iScript Reverse Transcription Supermix (BioRad). QPCR was performed to test the expression of Hh target gene Gli1 using IQ SYBR Green Supermix (BioRad).” left out
In a similar manner, C3H10T1/2 cells were pretreated for 2 hours with Compound 17 in DMEM containing 5% FBS. […] After 72 hours, RNA was extracted and analyzed by Q-RT-PCR for the expression of Hh target gene Gli1 and normalized to Oaz1 expression.

| Compound | effect on Hh signaling (Hh signaling) | effect on Gli signaling (relative expression of Gli1) [2] | other results |
| --- | --- | --- | --- |
| CC(C)CC[C@@H](O)[C@](C)(O)[C@H]1CC[C@H]2[C@@H]3CC=C4C[C@@H](O)CC[C@]4(C)[C@H]3CC[C@]12C [Compound 9, 20α,22(R)-dihydroxycholesterol] | blocks Hh signaling | – | – |
| CC(C)CCC[C@](C)(O)[C@H]1CC[C@H]2[C@@H]3CC=C4C[C@@H](O)CC[C@]4(C)[C@H]3CC[C@@]21C [Compound 8, 20(S)-hydroxycholesterol] | induces allosteric activation of Hh signaling | – | – |
| C[C@]12CC[C@H]3[C@@H](CC=C4C[C@@H](O)CC[C@@]43C)[C@@H]1CC[C@@H]2[C@H](O)CCc1ccc(F)cc1 [Compound 1, (3S,8S,9S,10R,13S,14S,17S)-17-((R)-3-(4-fluorophenyl)-1-hydroxypropyl)-10,13-dimethyl-2,3,4,7,8,9,10,11,12,13,14,15,16,17-tetradecahydro-1H-cyclopenta[a]phenanthren-3-ol] | – | stimulate Gli signaling | effect on Hh signaling (relative expression of Gli1) ([1]; 5% FBS in DMEM): increase Hh signaling |
| C[C@]12CC[C@H]3[C@@H](CC=C4C[C@@H](O)CC[C@@]43C)[C@@H]1CC[C@@H]2[C@](C)(O)CCc1cccnc1 [Compound 12, (3S,8S,9S,10R,13S,14S,17S)-17-((R)-2-hydroxy-4-(pyridin-3-yl)butan-2-yl)-10,13-dimethyl-2,3,4,7,8,9,10,11,12,13,14,15,16,17-tetradecahydro-1H-cyclopenta[a]phenanthren-3-ol] | Hh inhibitors | – | effect on TGFβ signaling (TGFβ signaling): blocks TGFβ signaling |
| C[C@]12CC[C@H](O)C[C@@H]1[C@@H](O)C[C@@H]1[C@@H]2CC[C@]2(C)[C@@H]([C@H](O)CCc3ccc(F)cc3)CC[C@@H]12 [Compound 5, (3S,5S,6S,8S,9S,10R,13S,14S,17S)-17-((R)-3-(4-fluorophenyl)-1-hydroxypropyl)-10,13-dimethylhexadecahydro-1H-cyclopenta[a]phenanthrene-3,6-diol] | – | stimulate Gli signaling | – |
| C[C@]12CC[C@H](O)C[C@@H]1CC[C@@H]1[C@@H]2CC[C@@]2(C)[C@H]1CC[C@@H]2[C@](C)(O)CCc1ccc(F)cc1 [Compound 11, (3S,5S,8R,9S,10S,13S,14S,17S)-17-((R)-4-(4-fluorophenyl)-2-hydroxybutan-2-yl)-10,13-dimethylhexadecahydro-1H-cyclopenta[a]phenanthren-3-ol] | Hh inhibitors | – | – |
| CC[C@@](O)(CCc1cccnc1)[C@H]1CC[C@H]2[C@@H]3CC[C@H]4C[C@@H](O)CC[C@]4(C)[C@H]3CC[C@]12C [Compound 6, (3S,5S,8R,9S,10S,13S,14S,17S)-17-((R)-3-hydroxy-1-(pyridin-3-yl)pentan-3-yl)-10,13-dimethylhexadecahydro-1H-cyclopenta[a]phenanthren-3-ol] | – | – | effect on baseline expression of Gli ([1]; 5% FBS in DMEM, 10 μM, vs DMSO control (FIG. 8)): lowers the baseline expression of Gli; effect on Gli/Hh signaling in cells treated with Conditioned Medium (relative expression of Gli1) [1]: inhibits Gli signaling |
| C[C@]12CC[C@H](O)C[C@@H]1CC[C@@H]1[C@@H]2CC[C@]2(C)[C@@H](C(CCc3ccc(F)cc3)=NO)CC[C@@H]12 [Compound 17, 3-(4-fluorophenyl)-1-((3S,5S,8R,9S,10S,13S,14S,17S)-3-hydroxy-10,13-dimethylhexadecahydro-1H-cyclopenta[a]phenanthren-17-yl)propan-1-one oxime] | – | – | effect on Hh signaling (relative expression of Gli1) ([3]; 5% FBS in DMEM): activator of Hh signaling; effect on conditioned medium induced Gli1 expression ([3]; CAPAN-1 CM, 2 hours pretreatment): further enhances the conditioned medium induced Gli1 expression |
| C[C@]12CC[C@H](O)C[C@@H]1CC[C@@H]1[C@@H]2CC[C@]2(C)[C@@H]([C@H](O)CCc3ccc(F)cc3)CC[C@@H]12 [Compound 2, (3S,5S,8R,9S,10S,13S,14S,17S)-17-((R)-3-(4-fluorophenyl)-1-hydroxypropyl)-10,13-dimethylhexadecahydro-1H-cyclopenta[a]phenanthren-3-ol] | – | – | effect on Hh signaling (relative expression of Gli1) ([1]; 5% FBS in DMEM): increase Hh signaling, although Compound 2 to a lesser degree than Compound 1; effect on Gli/Hh signaling in cells treated with Conditioned Medium (relative expression of Gli1) [1]: weak Hh antagonist |
| CCCCCC[C@](C)(O)[C@H]1CC[C@H]2[C@@H]3C[C@H](O)[C@H]4C[C@@H](O)CC[C@]4(C)[C@H]3CC[C@@]21C [Compound 10, (3S,5S,6S,8R,9S,10R,13S,14S,17S)-17-((S)-2-hydroxyoctan-2-yl)-10,13-dimethylhexadecahydro-1H-cyclopenta[a]phenanthrene-3,6-diol, reference compound] | Hh activator | stimulate Gli signaling | – |
